Measured values taken from patent publication US7008627B1, “Use of complexes for the preparation of compositions for the treatment of sensitive skin, preparation process and hypoallergenic compositions” (Johnson & Johnson Consumer France, priority 1996, dated 2006).
Values joined by “and” are separate entries in the source; they are usually repeats but may differ in a detail not shown here. Identical values can stand only once.

Legend:
[1] = test system: nitro derivatives (NO2^−); assay: Production of nitro derivatives by macrophages after stimulation by IFN-γ + LPS; type: cell-based, human; details: for Production of nitro derivatives (NO2^−), value between brackets: Table 5A, macrophages not stimulated by IFN-γ + LPS, + 10 mg/ml of the product; for effect on the production of nitro derivatives: macrophages stimulated by IFN-γ and LPS
Source text: (§1) The activities of the test products are therefore investigated with respect to human macrophage and keratinocyte cultures which are or are not stimulated by intereferon-γ+lipopolysaccharide (non-specific inflammation or by IL-4 (allergic inflammation). This type of stimulation places the cells in the context of a pro-oxidizing response (generation of NO or superoxide anion free radicals, which can be evaluated by measuring the production of nitrogeneous derivatives) and an immuno-inflammatory response (production of cytokines such as TNF-α).
(§2) The following products were used during this study: Escherichia coli LPS (Sigma), used at 1 μg/ml. IFN-γ and IL-4 are sourced from Immugenex (Los Angeles Calif.) and are used respectively at 1000 U/ml and 10 ng/ml, the monoclonal IgEs are sourced from Stallergene (Fresnes, France) and the anti-IgEs are from Nordic (Tilburg, Holland).
(§3) The macrophage cells are obtained from the peripheral blood of normal donors (non-allergic). The mononuclear cells are isolated on a ficoll gradient and the ring of lymphoid cells is recovered and washed three times and the cells are then cultured so as to cause the macrophage cells to adhere. These cells are recovered after adhering for 1 hour and are cultured (10^6 cells/ml/well). If appropriate, in the case of stimulation by IL-4, the presence of the IgE receptor (CD23) at the surface of the cells is verified by immunolabelling.
(§4) The cells are activated by the combination of IFN-γ and LPS for 3 to 4 days and the supernatants of these cultures are then recovered in order to quantitatively determine the nitrogeneous derivatives and TNF-α. Likewise, during stimulation by IgE, the cells are first activated by IL-4, so as to induce the CD23, and are then subsequently cultured and stimulated by the IgE-containing immune complexes for 3 to 5 days before recovering the different supernatants. In all the cases, cellular viability is achieved on conclusion of these cultures. In the specific case of macrophages, a long-term (7 to 12 days) viability study was carried out, so as to determine the protective effects of these products. Quantitative determination of the nitrogenous derivatives is carried out using the Griess approach and the TNF level is measured by using quantitative determination kits from Medgënix (Fleurus, Belgium).
(§5) In this study, the product H37 (10 mg/ml) is added 30 min before stimulation by IFN-γ+LPS.
(§6) In this study, the products (10 mg/ml or 1/100 v/v) are added 30 min before stimulation by IFN-γ+LPS. In none of the cases have these products shown a cytotoxic activity.

[2] = test system: TNF; assay: Production of TNF by keratinocytes after stimulation by IFN-γ + LPS; type: cell-based, human; details: for Production of TNF: keratinocytes stimulated by IFN-γ + LPS, Expt-1 to Expt-4; for effect on the production of TNF: keratinocytes stimulated by IFN-γ and LPS
Source text: as §1, §2
(§7) The confluent keratinocyte cultures are trypsinized and transferred into 24-well plates in fresh medium at the cellular density of 10^5 cells/ml/well. If appropriate, in the case of stimulation by IL-4, the presence of the IgE receptor (CD23) at the surface of the cells is verified by immunolabeling.
as §4, §5, §6

[3] = test system: keratinocytes and macrophages; assay: Overall anti-inflammatory activity (non-specific and allergic) on stimulated keratinocytes and macrophages; type: cell-based, human; details: conclusion from the IFN-γ + LPS (non-specific) and IL-4/IgE (allergic) models
Source text: as §1
(§8) To evaluate the allergic inflammation, the cells are activated by IL-4, which induces the CD23 receptor, and then by IgE-containing immune complexes. In all cases, the cellular supernatants are analysed after the activation.
(§9) The cells are activated by the combination of IFN-γ and LPS for 3 to 4 days and the supernatants of these cultures are then recovered in order to quantitatively determine the nitrogeneous derivatives and TNF-α. […] Quantitative determination of the nitrogenous derivatives is carried out using the Griess approach and the TNF level is measured by using quantitative determination kits from Medgënix (Fleurus, Belgium).

[4] = test system: TNF; assay: Production of TNF by macrophages after stimulation by IFN-γ + LPS; type: cell-based, human; details: for effect on the production of TNF: macrophages stimulated by IFN-γ and LPS
Source text: as §1, §2, §3
as §4, with “In all the cases, cellular viability is achieved on conclusion of these cultures. In the specific case of macrophages, a long-term (7 to 12 days) viability study was carried out, so as to determine the protective effects of these products.” left out, “Belgium). […]” for “Belgium).”

[5] = test system: keratinocytes; assay: Dose effect of K18 on the inflammatory functions of the keratinocytes (FIG. 1); type: cell-based, human
Description: FIG. 1: Dose effect of carboxymethyl-β-glucan with respect to the inflammatory functions of the keratinocytes.
Consequently, the effects of the product K18 were evaluated as a function of the dose. The results are illustrated in FIG. 1.

[6] = test system: nitro derivatives (NO2^−); assay: Production of nitro derivatives by keratinocytes after stimulation by IFN-γ + LPS; type: cell-based, human; details: for Production of nitro derivatives (NO2^−), value between brackets / Production of nitro derivatives (NO2^−): Table 5A, + 10 mg/ml of the product; for Production of nitro derivatives (NO2^−), value between brackets: keratinocytes not stimulated by IFN-γ + LPS; for Production of nitro derivatives (NO2^−): keratinocytes stimulated by IFN-γ + LPS, Expt-1 to Expt-4; for effect on the production of nitro derivatives / NO: keratinocytes stimulated by IFN-γ and LPS
Source text: as §1, §2, §7, §4, §5, §6

[7] = test system: TNF; assay: Production of TNF by macrophages after stimulation by IL-4 and IgE-containing immune complexes; type: cell-based, human
Description: as §8, §2
as §3, with “If appropriate, in the case of stimulation by IL-4, the presence of the IgE receptor (CD23) at the surface of the cells is verified by immunolabelling.” left out
as §9, with “Belgium). […]” for “Belgium).”

[8] = test system: TNF; assay: Production of TNF by keratinocytes after stimulation by IL-4 and IgE-containing immune complexes; type: cell-based, human
Description: as §8, §2, §7, §4
(§10) On completion of this culturing period, 30 to 80% of the keratinocytes and of the macrophages express CD23. The individual variations are in no case the reflection of a different allergic situation between these individuals. […]

[9] = test system: nitro derivatives (NO2^−); assay: Production of nitro derivatives by keratinocytes after stimulation by IL-4 and IgE-containing immune complexes; type: cell-based, human
Description: as §8, §2, §7
as §9, with “Belgium). […]” for “Belgium).”

[10] = test system: nitro derivatives (NO2^−); assay: Production of nitro derivatives by macrophages after stimulation by IL-4 and IgE-containing immune complexes; type: cell-based, human; details: for Production of nitro derivatives (NO2^−): macrophages stimulated by IgE-containing immune complexes (IL-4), Expt-1 to Expt-4
Description: as §8, §2, §3, §4
On completion of this culturing period, 30 to 80% of the keratinocytes and of the macrophages express CD23. The individual variations are in no case the reflection of a different allergic situation between these individuals.
After the CD23 has been taken up by IgE-containing immune complexes, the production of a large number of mediators and cytokines (in particular TNF) and of products resulting from the oxidative metabolism, such as nitrogenous derivatives, is induced. This stimulation redefines in vitro an allergic-type inflammatory reaction.
as §10

[11] = test system: mixed lympho-epidermal cultures (MLEC); assay: Summary table: anti-allergic activity, mixed lympho-epidermal cultures (MLEC), lymphocyte proliferation; type: cell-based; details: result in words
Source text: The activity of the components is also confirmed on mixed lympho-epidermal cultures (MLEC).
In the skin, Langherans cells indeed play an essential role in the […] of the antigen and keratinocytes generate factors which are involved in the immune response, thus constituting a cutaneous immune system. MLECs make it possible to determine the immuno-modulatory properties of substance by measuring the lymphocyte proliferation induced by the antigen-presenting allogenic epidermal cells, with or without treatment by the substance.

[12] = test system: glutathione peroxidase; assay: Summary table: anti-free radicals activity, glutathione peroxidase; details: result in words
Source text: (§11) Enzymes which are active in endogenous defence systems against free radicals are, for example, SOD (or superoxide -disumtase), catalase or glutathione peroxidase; attempts will be made to stimulate the production of these enzymes or they can be introduced exogeneously.

[13] = test system: NO; assay: Summary table: anti-free radicals activity, NO; type: cell-based, human; details: result in words
Source text: (§12) It is possible in particular to operate on keratinocytes and macrophage cells because these are cells which are essential for the development of a local inflammatory reaction. Moreover, macrophages are particularly advantageous cells because, due to the fact that these are resident cells in the skin, they regulate not only local inflammatory reactions but they also regulate the immune responses by their ability to present the antigen and to produce a great number of cytokines which regulate local immunity. These macrophages are also involved in communications with the circulatory system which can, if appropriate, mobilize different cell types (monocytes, neutrophils, eosinophils and T lymphocytes), thus increasing the non-specific and specific defensive power of the tissue under consideration.
as §1

[14] = test system: catalase; assay: Summary table: anti-free radicals activity, catalase; details: result in words
Source text: as §11

[15] = test system: LTB4; assay: Summary table: anti-inflammatory activity, LTB4; type: cell-based; details: result in words
Source text: as §12, §1

[16] = test system: peroxidation of the lipids; assay: Summary table: anti-free radicals activity, peroxidation of the lipids; details: result in words
[17] = test system: TNF-α; assay: Summary table: anti-inflammatory activity, TNF-α; type: cell-based, human; details: result in words
Source text: as §12, §1

[18] = test system: PGE2; assay: Summary table: anti-inflammatory activity, PGE2; type: cell-based; details: result in words
Source text: as §12, §1

[19] = test system: IL-1α; assay: Summary table: anti-inflammatory activity, IL-1α; type: cell-based; details: result in words
Source text: as §12, §1

[20] = Table 5B, + 10 mg/ml of the product
[21] = keratinocytes stimulated by IL-4
[22] = Table 6A, + 10 mg/ml of the product

Carboxymethyl-β-glucan [K18]
Production of nitro derivatives (NO2^−), value between brackets [1]: 1 µM and 2 µM
effect on the production of nitro derivatives [1]: high ability to inhibit
Production of TNF [2, 20]: 130 pg/mL and 95 pg/mL and 85 pg/mL and 82 pg/mL
effect on the production of TNF [2]: efficiently inhibit
anti-inflammatory activity [3]: non-specific and allergic-type anti-inflammatory activity
effect on the production of TNF [4]: efficiently inhibit
generation of TNF as a function of the dose [5]: inhibits, in a dose-dependent way
generation of nitro derivatives as a function of the dose [5]: inhibits, in a dose-dependent way
Production of nitro derivatives (NO2^−), value between brackets [6]: 1 µM
Production of nitro derivatives (NO2^−) [6]: 13 µM and 14 µM and 11 µM and 7 µM
effect on the production of nitro derivatives / NO [6]: high ability to inhibit
effect on the production of TNF ([7]; macrophages stimulated by IL-4): inhibitory activity
effect on the production of TNF [8, 21]: inhibitory activity
Production of nitro derivatives (NO2^−), value between brackets ([9]; Table 6A, keratinocytes not stimulated by IgE-containing immune complexes, + 10 mg/ml of the product): 2 µM and 4 µM
effect on the production of nitro derivatives [9, 21]: inhibitory activity
Production of nitro derivatives (NO2^−), value between brackets ([10]; Table 6A, macrophages not stimulated by IgE-containing immune complexes, + 10 mg/ml of the product): 2 µM and 4 µM
Production of nitro derivatives (NO2^−) [10, 22]: 7 µM and 6 µM and 10 µM
effect on the production of nitro derivatives ([10]; macrophages stimulated by IL-4): inhibitory activity

poly-β(1→3)-glucopyranose [K17]
Production of nitro derivatives (NO2^−), value between brackets [1]: 2 μM and 1 μM and 1.5 μM and 2 (2) μM
effect on the production of nitro derivatives [1]: high ability to inhibit
Production of TNF, value between brackets ([2]; Table 5B, keratinocytes not stimulated by IFN-γ + LPS, + 10 mg/ml of the product, ND = non-detectable): 95 pg/mL
Production of TNF [2, 20]: 125 pg/mL and 98 pg/mL and 100 pg/mL and 70 pg/mL
effect on the production of TNF [2]: efficiently inhibit
anti-inflammatory activity [3]: only has a non-specific anti-inflammatory activity
Production of TNF ([4]; Table 5B, macrophages stimulated by IFN-γ + LPS, + 10 mg/ml of the product, Expt-1 to Expt-4): 605 pg/mL and 902 pg/mL and 970 pg/mL and 695 pg/mL
effect on the production of TNF [4]: efficiently inhibit
Production of nitro derivatives (NO2^−), value between brackets [6]: 2 µM and 1 µM
Production of nitro derivatives (NO2^−) [6]: 15 µM and 16 µM and 8 µM
effect on the production of nitro derivatives / NO [6]: high ability to inhibit
Production of TNF, value between brackets ([7]; Table 6B, macrophages not stimulated by IgE-containing immune complexes, + product): 45 pg/mL and 41 pg/mL and 32 pg/mL
Production of TNF, value between brackets ([8]; Table 6B, keratinocytes not stimulated by IgE-containing immune complexes, + product): 35 pg/mL and 31 pg/mL and 32 pg/mL and 40 pg/mL
Production of TNF ([8]; Table 6B, keratinocytes stimulated by IL-4 / IgE-containing immune complexes, + product, Expt-1 to Expt-4): 185 pg/mL and 111 pg/mL and 120 pg/mL and 132 pg/mL
Production of nitro derivatives (NO2^−) [10, 22]: 16 µM and 17 µM and 19 µM and 30 µM

β-Glucan
Anti-allergic: MLEC [11]: no effect
Anti-free radicals: glutathione peroxidase [12]: stimulation
Anti-free radicals: NO [13]: inhibition
Anti-free radicals: catalase [14]: stimulation
Anti-inflammatory: LTB4 [15]: no effect
Anti-free radicals: peroxidation of the lipids [16]: no effect
Anti-inflammatory: TNF-α [17]: inhibition
Anti-inflammatory: PGE2 [18]: inhibition
Anti-inflammatory: IL-1α [19]: inhibition
